Test [1] deals with coagulation factors. As to the kind of experiment: In vitro prothrombin time (PT) coagulation assay. Details: species or system human. As to conditions: for PT(sec) REPLICATIONS I: replication I. On the procedure:
(§1) In vitro assays of the product of each of Examples A to C and certain of the Examples included in European Application No 81302950.1 were conducted for coagulation factors as described in "Human Blood Coagulation., Haemostasis and Thrombosis", edited by Rosemary Biggs, published by Blackwell Scientific Publications, Oxford, England (2nd Edition), pages 670-705, 1976.

Test [2] relates to coagulation factors. As to the kind of experiment: In vitro partial thromboplastin time (PTT) coagulation assay. Details: species or system human. The conditions noted are these: for PTT(sec) REPLICATIONS I: replication I. On the procedure: as §1
The mark [3] stands for this setting: Used at 0.01 Molar Concentration Based on NaHSO3.
Where [4] appears, read: Used at 0.01 Molar Concentration Based on NaHSO3, replication II.
Where [5] appears, read: Used at 0.01 Molar Concentration Based on NaHSO3, replication III.

For the compound `O=S=O` [aqueous solutions of sulphur dioxide, sulphur dioxide], in test [1] (no conditions given), the “ability to affect PT values” was “display a capacity to lengthen PT and PTT values at least to the extent indicated above”. In addition, the “ability to affect PTT values” in test [2] (no conditions given) was “display a capacity to lengthen PT and PTT values at least to the extent indicated above”.
Consider `O=S([O-])O.[Na+]` [NaHSO3 in water, sodium bisulphite], for which the “PT(sec) REPLICATIONS I” value in test [1] (setting [3]) is 20.2 s. For the same compound, the “PT(sec) REPLICATIONS II” value in test [1] (setting [4]) is 20.3 s. The “PT(sec) REPLICATIONS III” value in test [1] (setting [5]) was 20.0 s. The “PTT(sec) REPLICATIONS I” value in test [2] (setting [3]) was determined as 64.4 s. Besides, the “PTT(sec) REPLICATIONS II” value in test [2] (setting [4]) worked out at 63.2 s. Moreover, in test [2] (setting [5]), the “PTT(sec) REPLICATIONS III” value stood at 63.9 s.
Regarding `O=S(=O)(O)CO` [Sodium formaldehyde bisulphite], the “PT(sec) REPLICATIONS I” value in test [1] (setting [3]) is 20.5 s. Further, the “PTT(sec) REPLICATIONS I” value in test [2] (setting [3]) was 63.5 s.

The values above are taken from patent EP0055996A1, “Antithrombotic treatment” (T AND R CHEMICALS, INC., priority 1980, dated 1982).
